Data on 1 compound can be found in US20250276993A1, “PSEUDO-DISACCHARIDE COMPOUNDS” (UNIVERSITEIT LEIDEN, priority 2022, published 2025).

For assay [1], the target named is T1, HPSE (Homo sapiens, UniProt Q9Y251).
T1 sequence (Q9Y251 36-109 limits assumed): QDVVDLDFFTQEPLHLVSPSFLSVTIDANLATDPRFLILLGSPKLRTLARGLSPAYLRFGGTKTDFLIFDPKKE
T1 sequence (Q9Y251 158-543 limits assumed): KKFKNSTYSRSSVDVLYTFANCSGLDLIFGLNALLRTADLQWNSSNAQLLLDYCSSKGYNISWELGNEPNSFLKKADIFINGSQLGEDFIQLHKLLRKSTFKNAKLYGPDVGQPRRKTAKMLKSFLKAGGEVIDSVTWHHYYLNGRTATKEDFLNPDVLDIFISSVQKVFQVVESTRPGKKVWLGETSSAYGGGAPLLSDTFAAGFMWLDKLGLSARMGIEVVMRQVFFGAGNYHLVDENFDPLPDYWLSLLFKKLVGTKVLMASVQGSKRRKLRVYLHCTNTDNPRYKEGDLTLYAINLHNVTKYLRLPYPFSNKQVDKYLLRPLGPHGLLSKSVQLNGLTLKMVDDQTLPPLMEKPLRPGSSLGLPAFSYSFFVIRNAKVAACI
The assay can be described thus: cABPP Assay 1, recombinant HPSE. In kind it is biochemical.

The target of the next assay is T2, human platelet HPSE (Homo sapiens, UniProt Q9Y251).
T2 construct: endogenous in cells; host or cells: human platelet lysates
T2 sequence (Q9Y251 158-543 limits assumed): T1 sequence (Q9Y251 158-543 limits assumed)
T2 sequence (Q9Y251 36-109 limits assumed): T1 sequence (Q9Y251 36-109 limits assumed)
The assay can be described thus: cABPP with fluorescence quantitation, platelet lysates, HPSE. In kind it is biochemical. The note with it: read-out: IC50 platelet HPSE inhibition. How it is done: ABP labelling reactions were carried out in Mcllvaine buffer (pH 5.5), 300 mM NaCl. For recombinant proteins 200 fmol of EcGH2, BpHep, AcGH79, HPSE or proHPSE was used (20 nM in 10 μl final reaction volume). For labeling cell lysates, 4-20 μg total protein was used. Labeling reactions were initiated by the addition of ABP compounds 7, 8 or 9 to a final concentration of 100 nM (unless otherwise specified), before incubation for 30 min at 37° C. with shaking. Following labeling, samples were denatured by boiling with Laemmli buffer for 5 min and resolved by SDS-PAGE. Gels were scanned using Typhoon-5 laser scanner platform (Cytiva), using the λEX 635 nm laser and 670BP30 emission filter. For competitive ABPP (cABPP) experiments, protein mixtures were preincubated with inhibitor (or buffer only control) for 1 h at 37° C. with shaking, before the addition of 7 to a final concentration of 100 nM, and subsequent incubation for 30 min at 37° C. with shaking. SDS-PAGE and analysis steps were carried out as above. For quantitative measurements, fluorescently labeled band intensities were calculated using Imagequant (Cytiva), and normalized to the corresponding band in the inhibitor free control lane. cABPP plots were prepared and analyzed using SigmaPlot 14.0 (Systat).
Further cABPP studies were undertaken using platelet lysates to provide a more physiologically realistic environment. […]

For assay [2], the target named is T1, HPSE. The assay can be described thus: Fondaparinux cleavage assay. The class given is biochemical.
Assay [3] concerns the target T1, HPSE. The assay can be described thus: HSPG digest assay, recombinant HPSE. The class given is biochemical. How it is done:
ECM coated 35 mm culture dishes containing ^35S labelled HS were prepared as previously described (Vlodavsky et al., Curr. Protoc. Cell. Biol., Chapter 10, Unit 10, 14). Briefly, bovine corneal endothelial cells were plated at an initial density of 2×10^5 cells/ml, with 4% dextran T-40 (Sigma) included in the growth medium. Na2^35SO4 (25 μCi/ml) was added to the incubation medium on days 2 and 5 after seeding. On day 12, subendothelial ECM is exposed by dissolving the cells with PBS containing 0.5% Triton X-100 and 20 mM NH4OH, followed by four washes with PBS. For HS-degradation assays, ECM coated dishes were incubated with 200 ng recombinant HPSE in 1 mL reaction mixture (10 mM buffer Phosphate-Citrate pH 6.0, 50 mM NaCl, 1 mM DTT, 1 mM CaCl2) containing HPSE inhibitors or DMSO control. Plates were incubated at 37° C. for 5 h, then assay medium collected and applied to a 0.9×30 cm Sepharose 6B size exclusion column. The Sepharose 6B column was eluted with PBS, and ^35S radioactivity of 0.2 mL fractions quantitated using a liquid scintillation analyzer (Packard BioScience). Digest assays with U87 cell lysates were carried out in a similar fashion, except plates were incubated for 18 h with cell extracts prepared from 1×10^6 U87 glioma cells lysed by 3× freeze/thaw cycles.
The compounds of the invention were assessed against HPSE degradation of bona fide HSPGs in a physiologically relevant ECM-like environment. Cultured bovine corneal […] cells secrete a subendothelial basement membrane material rich in HSPGs, and their growth in the presence of ^35SO4^2− results in ^35S radiolabeled HSPGs (Vlodavsky et al., Curr Protoc Cell Biol, Chapter 10, Unit 10, 4, 2001). H^35S chains attached to these HSPGs are detectable after solubilization by HPSE, with enzyme inhibition leading to a corresponding reduction of signal.

Another assay has as its system U87 glioblastoma cells. The assay can be described thus: Matrigel invasion assay. The class given is cell-based, human. The note with it: 20 μM inhibitor, 4 h. Here is the method:
The Matrigel invasion assay was used to assess the effects of the compounds of the invention on cancer cell aggression. This is an in cellulo model of cell invasion through a HSPG rich basement membrane. The ability of cells to migrate through transwell inserts coated with Matrigel (an ECM secretion from Engelbreth-Holm-Swarm mouse sarcoma cells) correlates well with their in vivo invasive potential (Hall et al., Methods Mol Biol, 1070, 1-11 (2014)).
1×10^5 U87 cells in 200 μL DMEM media (without serum) were seeded onto the top chamber of a Matrigel-coated Boyden transwell filter, alongside 20 μM HPSE inhibitor (or PBS control). Cells in the upper chamber were separated by Matrigel from a lower chamber containing 600 μL DMEM, supplemented with 10% FBS. Plates were incubated at 37° C. for 4 h, before fixing cells in 4% (v/v) paraformaldehyde, and staining with 0.5% (w/v) crystal violet. Matrigel and non-migrating cells in the upper side of the Boyden filter were removed by swabbing, then invading cells on the bottom side of the transwell filter imaged for analysis. 10 randomly selected microscopic fields were recorded, and cell invasion calculated using ImageJ, by quantitating the percentage of the field stained by crystal violet. Graphs were plotted using RStudio.
The Matrigel invasion assay was used to assess the effects of the compounds of the invention on cancer cell aggression. […]

Assay [4] deals with T1, HPSE. The assay can be described thus: X-ray crystallography, ligand soaking of HPSE crystals. The note with it: crystal soaking. An excerpt: Xray diffraction data were collected at 100 K at beamlines i03 (HPSE-2, HPSE-3, HPSE-4, EcGUSB-1, BpHep-3), i04 (AcGH79-2, BpHep-2) and i04-1 (Apo-AcGH79, AcGH79-1, AcGH79-3) of the Diamond Light Source UK. Reflections were autoprocessed using the XIA2 pipeline. Complexes were solved by directly refining against their unliganded structures where isomorphous, or else solved by molecular replacement with PHASER (search model PDB accessions: 5E98 (HPSE), 3VNY (AcGH79), 3K46 (EcGUSB), 5BWI (BpHep)). […] Ligand coordinates were built using jLigand. Diagrams were generated using PyMOL.
HPSE—Well diffracting crystals of HPSE were obtained by the sitting-drop vapor-diffusion method at 20° C. using a well solution containing 0.1 M MES pH 5.5, 0.1 M MgCl2, 17% (w/v) PEG 3350, and a protein to well solution ratio of 200 nl:500 nl. Crystals typically appeared after 1 week. Inhibitor ligand complexes were obtained by transferring HPSE crystals to drops of well solution supplemented with 25% (v/v) ethylene glycol and 1-5 mM inhibitor. Crystals were incubated with ligand for ˜2-4 h, then directly harvested and flash-cooled in LN2 for data collection.
To better understand the molecular basis of interaction between our inhibitors and their targets, we turned to X-ray crystallography, using ligand soaking to derivatize enzymes in crystallo.

pIC50: −log10 of the molar value.

Turning to `CC(=O)N[C@H]1[C@@H](O[C@H]2[C@H](O)[C@@H](O)[C@@H]3O[C@@H]3[C@@H]2C(=O)O)O[C@H](COS(=O)(=O)O)[C@@H](O)[C@@H]1O` [Compound 3, 4-O-(2-N-acetyl-2-deoxy-6-O-sulfo-D-glucopyranosyl)-glucurono-cyclophellitol], on HPSE [1] (1 h preincubation at 37° C., pH 5.5, 100 nM ABP 7), the “HPSE inhibition (abrogation of labelling by ABP 7)” value is recorded as “inhibited HPSE at nanomolar concentrations”. Further, at HPSE [1] (cABPP Assay 1), the “potency against HPSE relative to other compounds” value was “greater potency against HPSE than 2 and 4”. Moreover, the pIC50 at human platelet HPSE is ~7.25. The “fold more potent than reference inhibitors #98 (10) and OGT2115 (11)” value on HPSE [2] was “approximately 2 fold”. The “inhibition of HPSE degradation of 35S-labelled HSPGs” value at HPSE [3] (200 ng recombinant HPSE, pH 6.0, 5 h) is on record as “robust, dose dependent inhibition”. For the same compound, at HPSE [3] (HSPG digest, recombinant HPSE), the “concentration giving comparable levels of inhibition” value was 1 µM. Moreover, in the assay with U87 glioblastoma cells, the Matrigel invasion result is “significantly reduced Matrigel invasion”. Besides, the “binding mode in HPSE active site cleft” value at HPSE [4] was “covalent linkages between their pseudo-anomeric carbons and the enzyme nucleophile Glu343”.

For orientation: pIC50 means the negative decadic logarithm of the IC50, by convention in mol/L.
